Test results reported in patent US10966426B2, “Herbicidal compositions comprising phenylpyrimidines” (BASF SE, priority 2016, dated 2021).
Values joined by “and” are separate entries in the source; they are usually repeats but may differ in a detail not shown here. Identical values can stand only once.

How the values were obtained:
Type in all cases: in vivo
Digitaria sanguinalis = test: greenhouse post-emergence treatment, DIGSA; settings: 20 DAT; for % activity: DIGSA
Description: (§1) The culture containers used were plastic pots containing loamy sand with approximately 3.0% of humus as substrate. The seeds of the test plants were sown separately for each species.
(§2) To this end, the test plants were either sown directly, and grown in the same containers, or they were first grown separately as seedlings and transplanted into the test containers a few days prior to treatment.
(§3) Depending on the species, the plants were kept at 10-25° C. and 20-35° C., respectively.
(§4) The test period extended over 2 to 4 weeks. During this time, the plants were tended and their response to the individual treatments was evaluated.
(§5) Evaluation was carried out using a scale from 0 to 100. 100 means no emergence of the plants, or complete destruction of at least the above-ground parts, and 0 means no damage or normal course of growth. A good herbicidal activity is given at values of at least 70, and very good herbicidal activity is given at values of at least 85.
(§6) In the examples, the solvent used was water.
(§7) In the examples below, using the method of S. R. Colby (1967) “Calculating synergistic and antagonistic responses of herbicide combinations”, Weeds 15, p. […] E=X+Y−(X·Y/100) where X=effect in percent using herbicide A at an application rate a; • Y=effect in percent using herbicide B at application rate b; • E=expected effect (in %) of herbicide A+herbicide B at application rates a+b.

Bromus sterilis = test: greenhouse post-emergence treatment, BROST; settings: 20 DAT; for % activity: BROST
Description: as §1, §2, §3, §4, §5, §6, §7

Brachiaria decumbens = test: greenhouse post-emergence treatment, BRADC; settings: 20 DAT; for % activity: BRADC
Description: as §1
(§8) For the post-emergence treatment, the test plants were grown to a plant height of from 3 to 15 cm, depending on the plant habit, and only then treated with the active compounds which had been suspended or emulsified in water. To this end, the test plants were either sown directly, and grown in the same containers, or they were first grown separately as seedlings and transplanted into the test containers a few days prior to treatment.
as §3, §4, §5
(§9) The respective stated components A and B, and if appropriate, C were formulated as a 10% by weight strength emulsion concentrate and, with addition of the amount of solvent system, introduced into the spray liquor used for applying the active compound. In the examples, the solvent used was water.
(§10) In the examples below, using the method of S. R. Colby (1967) “Calculating synergistic and antagonistic responses of herbicide combinations”, Weeds 15, p. 22ff., the value E, which is expected if the activity of the individual active compounds is only additive, was calculated. E=X+Y−(X·Y/100) where X=effect in percent using herbicide A at an application rate a; • Y=effect in percent using herbicide B at application rate b; • E=expected effect (in %) of herbicide A+herbicide B at application rates a+b.

Alopecurus myosuroides = test: greenhouse post-emergence treatment, ALOMY; settings: Alopecurus myosuroides, 480 h, 20 DAT, ALOMY
Description: as §1, §2, §3, §4, §5, §6, §7

Avena fatua = test: greenhouse post-emergence treatment, AVEFA; settings: Avena fatua, 480 h, 20 DAT
Description: as §1, §2, §3, §4, §5, §6, §7

Matricaria chamomilla = test: greenhouse post-emergence treatment, MATCH; settings: MATCH, 20 DAT
Description: as §1, §8, §3, §4, §5, §9, §10

Setaria viridis = test: greenhouse post-emergence treatment, SETVI; settings: 20 DAT; for % activity: SETVI
Description: as §1, §2, §3, §4, §5, §6, §7

Lolium multiflorum = test: greenhouse post-emergence treatment, LOLMU; settings: 20 DAT; for % activity: LOLMU
Description: as §1, §2, §3, §4, §5, §6, §7

Papaver rhoeas = test: greenhouse post-emergence treatment, PAPRH; settings: 20 DAT
Description: as §1, §8, §3, §4, §5, §9, §10

Ambrosia elatior = test: greenhouse post-emergence treatment, AMBEL; settings: 20 DAT
Description: as §1, §8, §3, §4, §5, §9, §10

Galium aparine = test: greenhouse post-emergence treatment, GALAP; settings: GALAP, 20 DAT
Description: as §1, §8, §3, §4, §5, §9, §10

[1] = solo pyroxsulam (SC 30 g/l) 7.5 gai/ha
[2] = solo pyroxsulam (SC 30 g/l) 1.875 gai/ha
[3] = solo pyroxsulam (SC 30 g/l) 3.75 gai/ha

Structure (SMILES): COc1nc(C)nc(NC(=O)NS(=O)(=O)c2cc(I)ccc2C(=O)O)n1 [iodosulfuron]
- inhibition at 1.25 g/ha (Digitaria sanguinalis; Digitaria sanguinalis, 480 h, iodosulfuron solo 1.25 gai/ha): 0%
- inhibition at […] (Digitaria sanguinalis; Digitaria sanguinalis, 480 h, iodosulfuron solo 2.5 gai/ha): 20%
- inhibition at 5 g/ha (Digitaria sanguinalis; Digitaria sanguinalis, 480 h, iodosulfuron solo 5 gai/ha): 50%
- inhibition at 1.25 g/ha (Bromus sterilis; Bromus sterilis, 480 h, iodosulfuron solo 1.25 gai/ha): 0%
- inhibition at […] (Bromus sterilis; Bromus sterilis, 480 h, iodosulfuron solo 2.5 gai/ha): 0%
- inhibition at 5 g/ha (Bromus sterilis; Bromus sterilis, 480 h, iodosulfuron solo 5 gai/ha): 0%
- inhibition at […] (Brachiaria decumbens; Urochloa decumbens, 480 h, iodosulfuron solo 2.5 gai/ha): 20%
- inhibition at 5 g/ha (Brachiaria decumbens; Urochloa decumbens, 480 h, iodosulfuron solo 5 gai/ha): 30%

Structure (SMILES): CCc1cc(C)cc(CC)c1-c1c(OC(=O)C(C)(C)C)n2n(c1=O)CCOCC2 [pinoxaden]
- inhibition at […] (Alopecurus myosuroides; pinoxaden solo 7.5 gai/ha): 75%
- inhibition at 60 g/ha (Alopecurus myosuroides; pinoxaden solo 60 gai/ha): 94%
- pest or weed control at […] (Alopecurus myosuroides; solo, EC 50 g/l, 7.5 gai/ha): 48%
- pest or weed control at […] (Avena fatua; solo, EC 50 g/l, AVEFA, 7.5 gai/ha): 33%

Structure (SMILES): COc1cc(OC)n2nc(NS(=O)(=O)c3c(C(F)(F)F)ccnc3OC)nc2n1 [pyroxsulam]
- % activity (Digitaria sanguinalis; [1]): 80%
- % activity (Digitaria sanguinalis; pyroxsulam solo 1.875 gai/ha): 65%
- % activity (Digitaria sanguinalis; pyroxsulam solo 3.75 gai/ha): 75%
- % activity (Digitaria sanguinalis; pyroxsulam solo 7.5 gai/ha): 80%
- % activity (Matricaria chamomilla; [2]): 30%
- % activity (Matricaria chamomilla; [3]): 60%
- % activity (Matricaria chamomilla; solo pyroxsulam (SC 30 g/l) 15 gai/ha): 80%
- % activity (Matricaria chamomilla; pyroxsulam solo 1.875 gai/ha): 30%
- % activity (Matricaria chamomilla; pyroxsulam solo 3.75 gai/ha): 60%
- % activity (Matricaria chamomilla; pyroxsulam solo 15 gai/ha): 80%
- % activity (Bromus sterilis; [2]): 60%
- % activity (Bromus sterilis; pyroxsulam solo 1.875 gai/ha): 60%
- % activity (Bromus sterilis; pyroxsulam solo 3.75 gai/ha): 70%
- % activity (Bromus sterilis; pyroxsulam solo 7.5 gai/ha): 75%
- % activity (Setaria viridis; [2]): 75%
- % activity (Setaria viridis; pyroxsulam solo 1.875 gai/ha): 75%
- % activity (Brachiaria decumbens; [2]): 20%
- % activity (Brachiaria decumbens; pyroxsulam solo 1.875 gai/ha): 20%
- % activity (Brachiaria decumbens; pyroxsulam solo 3.75 gai/ha): 75%
- % activity (Lolium multiflorum; pyroxsulam solo 1.875 gai/ha): 60% and 80%
- % activity (Lolium multiflorum; pyroxsulam solo 3.75 gai/ha): 65%
- % activity (Lolium multiflorum; pyroxsulam solo 7.5 gai/ha): 80%
- % activity (Papaver rhoeas; PAPRH, solo pyroxsulam (SC 30 g/l) 1.875 gai/ha): 0%
- % activity (Papaver rhoeas; PAPRH, solo pyroxsulam (SC 30 g/l) 3.75 gai/ha): 0%
- % activity (Papaver rhoeas; PAPRH, solo pyroxsulam (SC 30 g/l) 7.5 gai/ha): 30%
- % activity (Papaver rhoeas; PAPRH, solo pyroxsulam (SC 30 g/l) 15 gai/ha): 70%
- % activity (Papaver rhoeas; pyroxsulam solo 1.875 gai/ha, PAPRH): 0%
- % activity (Papaver rhoeas; pyroxsulam solo 3.75 gai/ha, PAPRH): 0%
- % activity (Papaver rhoeas; pyroxsulam solo 7.5 gai/ha, PAPRH): 30%
- % activity (Papaver rhoeas; pyroxsulam solo 15 gai/ha, PAPRH): 70%
- % activity (Ambrosia elatior; pyroxsulam solo 1.875 gai/ha, AMBEL): 70%
- % activity (Galium aparine; [2]): 60%
- % activity (Galium aparine; [3]): 65%
- % activity (Galium aparine; [1]): 75%
- % activity (Galium aparine; pyroxsulam solo 1.875 gai/ha): 60%
- % activity (Galium aparine; pyroxsulam solo 3.75 gai/ha): 65%
- % activity (Galium aparine; pyroxsulam solo 7.5 gai/ha): 75%
- % activity (Galium aparine; pyroxsulam solo 15 gai/ha): 90%

Structure (SMILES): CCS(=O)(=O)c1nc2ccccn2c1S(=O)(=O)NC(=O)Nc1nc(OC)cc(OC)n1 [sulfosulfuron]
- inhibition at […] (Digitaria sanguinalis; Digitaria sanguinalis, 480 h, sulfosulfuron solo 1.5 gai/ha): 0%
- inhibition at 3 g/ha (Digitaria sanguinalis; Digitaria sanguinalis, 480 h, sulfosulfuron solo 3 gai/ha): 20%
- inhibition at 12 g/ha (Digitaria sanguinalis; Digitaria sanguinalis, 480 h, sulfosulfuron solo 12 gai/ha): 65%
- inhibition at […] (Bromus sterilis; Bromus sterilis, 480 h, sulfosulfuron solo 1.5 gai/ha): 0%
- inhibition at 3 g/ha (Bromus sterilis; Bromus sterilis, 480 h, sulfosulfuron solo 3 gai/ha): 50%
- inhibition at 12 g/ha (Bromus sterilis; Bromus sterilis, 480 h, sulfosulfuron solo 12 gai/ha): 70%
- inhibition at […] (Setaria viridis; Setaria viridis, 480 h, sulfosulfuron solo 1.5 gai/ha): 50%
- inhibition at 6 g/ha (Setaria viridis; Setaria viridis, 480 h, sulfosulfuron solo 6 gai/ha): 65%
- inhibition at 12 g/ha (Setaria viridis; Setaria viridis, 480 h, sulfosulfuron solo 12 gai/ha): 75%
- inhibition at […] (Brachiaria decumbens; Urochloa decumbens, 480 h, sulfosulfuron solo 1.5 gai/ha): 20%
- inhibition at 12 g/ha (Brachiaria decumbens; Urochloa decumbens, 480 h, sulfosulfuron solo 12 gai/ha): 80%
- inhibition at […] (Avena fatua; sulfosulfuron solo 1.5 gai/ha): 0%
- inhibition at 3 g/ha (Avena fatua; sulfosulfuron solo 3 gai/ha): 0%
- inhibition at […] (Lolium multiflorum; Lolium multiflorum, 480 h, sulfosulfuron solo 1.5 gai/ha): 0%
- inhibition at 3 g/ha (Lolium multiflorum; Lolium multiflorum, 480 h, sulfosulfuron solo 3 gai/ha): 0%
- inhibition at 6 g/ha (Lolium multiflorum; Lolium multiflorum, 480 h, sulfosulfuron solo 6 gai/ha): 10%
- inhibition at 12 g/ha (Lolium multiflorum; Lolium multiflorum, 480 h, sulfosulfuron solo 12 gai/ha): 35%
- inhibition at […] (Papaver rhoeas; Papaver rhoeas, 480 h, sulfosulfuron solo 1.5 gai/ha): 25%
- inhibition at 3 g/ha (Papaver rhoeas; Papaver rhoeas, 480 h, sulfosulfuron solo 3 gai/ha): 80%
- pest or weed control at […] (Papaver rhoeas; Papaver rhoeas, 480 h, PAPRH, solo sulfosulfuron (WG 80%) 1.5 gai/ha): 25%
- inhibition at […] (Ambrosia elatior; Ambrosia artemisiifolia, 480 h, sulfosulfuron solo 1.5 gai/ha): 70%
- pest or weed control at […] (Galium aparine; Galium aparine, 480 h, solo sulfosulfuron (WG 80%) 1.5 gai/ha): 65%
- pest or weed control at 3 g/ha (Galium aparine; Galium aparine, 480 h, solo sulfosulfuron (WG 80%) 3 gai/ha): 85%
